Source: ChEMBL document CHEMBL1154822, “Synthesis and antiproliferative activity of 7-azaindirubin-3'-oxime, a 7-aza isostere of the natural indirubin pharmacophore” (J Nat Prod, 2009)

Tests used:
Type in all cases: functional
[1] = tested on: UACC-257; assay: Cytotoxicity against human UACC257 cells after 1 to 11 days by MTT assay
[2] = tested on: IGROV-1; assay: Cytotoxicity against human IGROV1 cells assessed as cell growth at 1 mM after 1 to 11 days by MTT assay; details: read-out: Activity
[3] = tested on: Malme-3M; assay: Cytotoxicity against human MALME-3M cells assessed as cell growth at 10 uM after 1 to 11 days by MTT assay; details: read-out: Activity
[4] = tested on: NCI-H23; assay: Cytotoxicity against human NCI-H23 cells assessed as cell growth at 10 uM after 1 to 11 days by MTT assay; details: read-out: Activity
[5] = tested on: SK-MEL-5; assay: Cytotoxicity against human SK-MEL-5 cells assessed as cell growth at 0.1 uM after 1 to 11 days by MTT assay; details: read-out: Activity
[6] = tested on: LOX IMVI; assay: Cytotoxicity against human LOXIMVI cells assessed as cell growth at 10 uM after 1 to 11 days by MTT assay; details: read-out: Activity
[7] = tested on: SF-268; assay: Cytotoxicity against human SF268 cells assessed as cell growth at 1 mM after 1 to 11 days by MTT assay; details: read-out: Activity
[8] = tested on: A498; assay: Cytotoxicity against human A498 cells assessed as cell growth at 100 uM after 1 to 11 days by MTT assay; details: read-out: Activity
[9] = tested on: SW-620; assay: Cytotoxicity against human SW620 cells after 1 to 11 days by MTT assay
[10] = tested on: MDA-MB-231; assay: Cytotoxicity against human MDA-MB-231 cells assessed as cell growth at 1 uM after 1 to 11 days by MTT assay; details: read-out: Activity
[11] = Cytotoxicity against human Hs 578T cells after 1 to 11 days by MTT assay
[12] = tested on: NCI-H460; assay: Cytotoxicity against human NCI-H460 cells after 1 to 11 days by MTT assay
[13] = tested on: HCT-116; assay: Cytotoxicity against human HCT116 cells assessed as cell growth at 100 uM after 1 to 11 days by MTT assay; details: read-out: Activity
[14] = tested on: RXF 393; assay: Cytotoxicity against human […] cells assessed as cell growth at 1 mM after 1 to 11 days by MTT assay; details: read-out: Activity
[15] = tested on: A498; assay: Cytotoxicity against human A498 cells assessed as cell growth at 0.1 uM after 1 to 11 days by MTT assay; details: read-out: Activity
[16] = tested on: TK-10; assay: Cytotoxicity against human TK10 cells assessed as cell growth at 0.1 uM after 1 to 11 days by MTT assay; details: read-out: Activity
[17] = tested on: SK-OV-3; assay: Cytotoxicity against human SKOV3 cells assessed as cell growth at 100 uM after 1 to 11 days by MTT assay; details: read-out: Activity
[18] = tested on: HT-29; assay: Cytotoxicity against human HT-29 cells assessed as cell growth at 1 uM after 1 to 11 days by MTT assay; details: read-out: Activity
[19] = tested on: KM12; assay: Cytotoxicity against human KM12 cells assessed as cell growth at 1 uM after 1 to 11 days by MTT assay; details: read-out: Activity
[20] = tested on: MCF7; assay: Cytotoxicity against human MCF7 cells assessed as cell growth at 1 mM after 1 to 11 days by MTT assay; details: read-out: Activity
[21] = tested on: HCC 2998; assay: Cytotoxicity against human HCC2998 cells assessed as cell growth at 1 mM after 1 to 11 days by MTT assay; details: read-out: Activity
[22] = tested on: SNB-19; assay: Cytotoxicity against human SNB19 cells after 1 to 11 days by MTT assay
[23] = tested on: SNB-19; assay: Cytotoxicity against human SNB19 cells assessed as cell growth at 1 mM after 1 to 11 days by MTT assay; details: read-out: Activity
[24] = tested on: HOP-62; assay: Cytotoxicity against human HOP62 cells assessed as cell growth at 0.1 uM after 1 to 11 days by MTT assay; details: read-out: Activity
[25] = tested on: OVCAR-5; assay: Cytotoxicity against human OVCAR5 cells after 1 to 11 days by MTT assay
[26] = tested on: HCC 2998; assay: Cytotoxicity against human HCC2998 cells assessed as cell growth at 1 uM after 1 to 11 days by MTT assay; details: read-out: Activity
[27] = tested on: A498; assay: Cytotoxicity against human A498 cells assessed as cell growth at 1 uM after 1 to 11 days by MTT assay; details: read-out: Activity
[28] = tested on: MCF7; assay: Cytotoxicity against human MCF7 cells assessed as cell growth at 100 uM after 1 to 11 days by MTT assay; details: read-out: Activity
[29] = tested on: K562; assay: Cytotoxicity against human K562 cells assessed as cell growth at 10 uM after 1 to 11 days by MTT assay; details: read-out: Activity
[30] = tested on: HOP-92; assay: Cytotoxicity against human HOP92 cells assessed as cell growth at 1 mM after 1 to 11 days by MTT assay; details: read-out: Activity
[31] = tested on: BT-549; assay: Cytotoxicity against human BT549 cells assessed as cell growth at 0.1 uM after 1 to 11 days by MTT assay; details: read-out: Activity
[32] = tested on: OVCAR-5; assay: Cytotoxicity against human OVCAR5 cells assessed as cell growth at 100 uM after 1 to 11 days by MTT assay; details: read-out: Activity
[33] = tested on: OVCAR-4; assay: Cytotoxicity against human OVCAR4 cells after 1 to 11 days by MTT assay
[34] = tested on: PC-3; assay: Cytotoxicity against human PC3 cells after 1 to 11 days by MTT assay
[35] = tested on: SR; assay: Cytotoxicity against human SR cells after 1 to 11 days by MTT assay
[36] = tested on: RXF 393; assay: Cytotoxicity against human […] cells assessed as cell growth at 1 uM after 1 to 11 days by MTT assay; details: read-out: Activity
[37] = tested on: RPMI-8226; assay: Cytotoxicity against human RPMI8226 cells assessed as cell growth at 1 uM after 1 to 11 days by MTT assay; details: read-out: Activity
[38] = tested on: NCI-H23; assay: Cytotoxicity against human NCI-H23 cells assessed as cell growth at 1 uM after 1 to 11 days by MTT assay; details: read-out: Activity
[39] = tested on: HCT-116; assay: Cytotoxicity against human HCT116 cells assessed as cell growth at 1 mM after 1 to 11 days by MTT assay; details: read-out: Activity
[40] = tested on: A498; assay: Cytotoxicity against human A498 cells after 1 to 11 days by MTT assay
[41] = tested on: K562; assay: Cytotoxicity against human K562 cells assessed as cell growth at 1 mM after 1 to 11 days by MTT assay; details: read-out: Activity
[42] = tested on: HCC 2998; assay: Cytotoxicity against human HCC2998 cells after 1 to 11 days by MTT assay
[43] = tested on: HCT-116; assay: Cytotoxicity against human HCT116 cells assessed as cell growth at 1 uM after 1 to 11 days by MTT assay; details: read-out: Activity
[44] = read-out: LC50 (the source's name)

O=C1Nc2ncccc2/C1=C1/Nc2ccccc2/C1=N\O
GI50 [1]: > 100 µM | TGI [1]: > 100 µM | CC50 [1, 44]: > 100 µM | growth at 1000 µM [2]: 12% | growth at 10 µM [3]: 91% | growth at 10 µM [4]: 83% | growth at 0.1 µM [5]: 104% | growth at 10 µM [6]: 86% | growth at 1000 µM [7]: 54% | growth at 100 µM [8]: 18% | GI50 [9]: 7.45 µM | TGI [9]: > 100 µM | CC50 [9, 44]: > 100 µM | growth at 1 µM [10]: 88% | GI50 [11]: 2.39 µM | TGI [11]: > 100 µM | CC50 [11, 44]: > 100 µM | GI50 [12]: 7.02 µM | TGI [12]: > 100 µM | CC50 [12, 44]: > 100 µM | growth at 100 µM [13]: 46% | growth at 1000 µM [14]: 7% | growth at 0.1 µM [15]: 76% | growth at 0.1 µM [16]: 101% | growth at 100 µM [17]: -6% | growth at 1 µM [18]: 98% | growth at 1 µM [19]: 91% | growth at 1000 µM [20]: 41% | growth at 1000 µM [21]: 36% | GI50 [22]: > 100 µM | TGI [22]: > 100 µM | CC50 [22, 44]: > 100 µM | growth at 1000 µM [23]: 83% | growth at 0.1 µM [24]: 102% | GI50 [25]: 93.9 µM | TGI [25]: > 100 µM | CC50 [25, 44]: > 100 µM | growth at 1 µM [26]: 87% | growth at 1 µM [27]: 85% | growth at 100 µM [28]: 52% | growth at 10 µM [29]: 66% | growth at 1000 µM [30]: 44% | growth at 0.1 µM [31]: 89% | growth at 100 µM [32]: 88% | GI50 [33]: 9.1 µM | TGI [33]: > 100 µM | CC50 [33, 44]: > 100 µM | GI50 [34]: 6.82 µM | TGI [34]: > 100 µM | CC50 [34, 44]: > 100 µM | GI50 [35]: 6.65 µM | TGI [35]: > 100 µM | CC50 [35, 44]: > 100 µM | growth at 1 µM [36]: 94% | growth at 1 µM [37]: 80% | growth at 1 µM [38]: 90% | growth at 1000 µM [39]: 50% | GI50 [40]: 1.93 µM | TGI [40]: > 100 µM | CC50 [40, 44]: > 100 µM | growth at 1000 µM [41]: 25% | GI50 [42]: 5.96 µM | TGI [42]: > 100 µM | CC50 [42, 44]: > 100 µM | growth at 1 µM [43]: 107%
